One series has as its target T1, human ERβ (Homo sapiens, UniProt Q92731).
T1 construct: M214-Q530 of human ERβ; Flag (C); made in house; host or cells: E. coli BL21(DE3); clarified lysate used
Kind of series: Radioligand binding competition with [3H]-17β-estradiol, ERβ. Conditions: ligand binding domain expressed in E. coli lysate, read-out: ER-β IC50.

A further series has as its target T2, human ERα (Homo sapiens, UniProt P03372).
T2 construct: amino acids M250V595 of human ERα; His (N); made in house; host or cells: E. coli BL21(DE3); clarified lysate used
T2 sequence (P03372 250-595): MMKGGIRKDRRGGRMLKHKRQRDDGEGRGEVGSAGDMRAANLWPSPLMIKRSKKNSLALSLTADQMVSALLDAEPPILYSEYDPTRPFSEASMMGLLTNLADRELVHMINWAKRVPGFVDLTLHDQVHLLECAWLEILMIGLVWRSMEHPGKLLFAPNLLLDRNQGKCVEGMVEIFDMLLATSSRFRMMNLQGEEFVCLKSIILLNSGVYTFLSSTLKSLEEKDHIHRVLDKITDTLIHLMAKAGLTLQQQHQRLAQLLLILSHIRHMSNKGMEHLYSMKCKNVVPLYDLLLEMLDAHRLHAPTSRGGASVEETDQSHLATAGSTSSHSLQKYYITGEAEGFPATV
Kind of series: Radioligand binding competition with [3H]-17β-estradiol, ERα. Conditions: ligand binding domain expressed in E. coli lysate, read-out: ER-α IC50.

pIC50: −log10 of the molar value. A value given as a limit tells only on which side of the number the result lay.

T1 sequence (Q92731 214-530): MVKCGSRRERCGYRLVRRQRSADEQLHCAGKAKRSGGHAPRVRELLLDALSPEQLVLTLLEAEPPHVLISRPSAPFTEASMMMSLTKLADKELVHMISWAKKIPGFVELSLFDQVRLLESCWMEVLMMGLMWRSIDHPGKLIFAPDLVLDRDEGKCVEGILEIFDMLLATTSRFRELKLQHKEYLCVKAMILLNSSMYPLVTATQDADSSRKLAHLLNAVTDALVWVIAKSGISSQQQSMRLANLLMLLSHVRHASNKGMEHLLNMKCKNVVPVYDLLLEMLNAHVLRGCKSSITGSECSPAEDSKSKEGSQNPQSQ

With `Oc1ccc2oc(-c3ccc(O)c4ccccc34)nc2c1` [Example 6, 2-(4-Hydroxy-1-naphthyl)-1,3-benzoxazol-5-ol], the melting point lay in the range of 182 to 184 °C. The pIC50 at human ERβ was 6.64. Further, at human ERα, the pIC50 is 6.24.
The molecule `Cn1nc(-c2ccc3cc(O)ccc3c2)c2ccc(O)cc21` [Example 17, 3-(6-Hydroxy-2-naphthyl)-1-methyl-1H-indazol-6-ol] displayed a melting point of 290 to 292 °C. Besides, the pIC50 on human ERβ is 5.82. For the same molecule, the pIC50 on human ERα was < 5.30.
The matching figures for `CCn1nc(-c2ccc3cc(O)ccc3c2)c2ccc(O)cc21` [Example 18, 1-Ethyl-3-(6-hydroxy-2-naphthyl)-1H-indazol-6-ol]: 146 to 148 °C, < 5.30 and 5.50.

A word on the pIC50: it is −log10 of the IC50, conventionally taken in molar units. One may read the melting point as the temperature, or range, at which the solid turns liquid.
